Data taken from patent US20260232767A1, “INTERLEUKIN-23 RECEPTOR ANTAGONIST PEPTIDES FOR USE IN THE TREATMENT OF PSORIASIS” (Janssen Pharmaceutica NV, priority 2023, published 2026).

System: subjects with moderate-to-severe plaque psoriasis
Experiment: Safety, adverse events, Example 2 through Week 56
Type: in vivo, human
Excerpt: The LTE safety analysis was based on randomized participants in Example who entered the present long-term extension study and received at least one dose of study intervention (including a partial dose) during the study period.

[1] = 25 mg QD, LTE Safety analysis set
[2] = 50 mg QD, Week 16 through Week 56
[3] = 50 mg QD, LTE Safety analysis set

CC(=O)NCCCC[C@@H]1NC(=O)[C@H](Cc2c[nH]c3c(C)cccc23)NC(=O)[C@H]([C@@H](C)O)NC(=O)[C@H](CC(N)=O)NC(=O)[C@@H](NC(C)=O)C(C)(C)SSC(C)(C)[C@@H](C(=O)N[C@@H](Cc2ccc(OCCN)cc2)C(=O)N[C@@H](Cc2ccc3ccccc3c2)C(=O)NC2(C(=O)N[C@@H](CCC(=O)O)C(=O)N[C@@H](CC(N)=O)C(=O)N[C@@H](Cc3cccnc3)C(=O)N(C)CC(N)=O)CCOCC2)NC1=O [IL-23 receptor antagonist peptide, Ac-[Pen]*-N-T-[W(7-Me)]-[Lys(Ac)]-[Pen]*-Phe[4-(2-aminoethoxy)]-[2-Nal]-[THP]-E-N-[3-Pal]-Sarc-NH2 (*[Pen]-[Pen]* formdisulfidebond)]
Subjects with treatment-emergent serious AE: Neoplasms benign, malignant and unspecified (incl cysts and polyps) (25 mg QD, through Week 56): 0
Subjects with treatment-emergent serious AE: Nervous system disorders (25 mg QD, through Week 56): 0
Subjects with treatment-emergent serious AE: Non-cardiac chest pain (25 mg QD, through Week 56): 0
Subjects with treatment-emergent serious AE: Psychiatric disorders (25 mg QD, through Week 56): 0
Subjects with treatment-emergent serious AE: Respiratory, thoracic and mediastinal disorders (25 mg QD, through Week 56): 0
Subjects with treatment-emergent serious AE: Suicide attempt (25 mg QD, through Week 56): 0
Subjects with treatment-emergent serious AE: Tonsillar hypertrophy (25 mg QD, through Week 56): 0
Subjects with treatment-emergent serious AE: Uterine leiomyoma (25 mg QD, through Week 56): 0
Subjects with treatment-emergent serious AE: Ventricular dysfunction (25 mg QD, through Week 56): 0
Suicide attempt: number of subjects (25 mg QD, through Week 56): 0
Sunburn: number of subjects (25 mg QD, through Week 56): 0
Thrombocytopenia: % of subjects (25 mg QD, through Week 56): (2.3%)
Thrombocytopenia: number of subjects (25 mg QD, through Week 56): 1
Thrombocytosis: number of subjects (25 mg QD, through Week 56): 0
Tonsillar hypertrophy: number of subjects (25 mg QD, through Week 56): 0
Tooth fracture: number of subjects (25 mg QD, through Week 56): 0
Type 2 diabetes mellitus: number of subjects (25 mg QD, through Week 56): 0
Urinary tract disorder: number of subjects (25 mg QD, through Week 56): 0
Uterine leiomyoma: number of subjects (25 mg QD, through Week 56): 0
Vascular disorders: number of subjects (25 mg QD, through Week 56): 0
Ventricular dysfunction: number of subjects (25 mg QD, through Week 56): 0
Vertigo: % of subjects (25 mg QD, through Week 56): (2.3%)
Vertigo: number of subjects (25 mg QD, through Week 56): 1
Vitamin D deficiency: number of subjects (25 mg QD, through Week 56): 0
Subjects with 1 or more Serious Infections and infestations [1]: 0
Subjects with 1 or more Serious adverse events [1]: 0
Subjects with adverse event: Arthralgia [1]: 0
Subjects with adverse event: Hypertension [1]: 0
Subjects with adverse event: Influenza [1]: 0
Subjects with adverse event: Sinusitis [1]: 0
Subjects with adverse event: Vomiting [1]: 0
Subjects with serious adverse event: Cerebrovascular accident [1]: 0
Subjects with serious adverse event: Coronary artery disease [1]: 0
Subjects with serious adverse event: Diverticulitis [1]: 0
Subjects with serious adverse event: Foot deformity [1]: 0
Subjects with serious adverse event: Intervertebral disc protrusion [1]: 0
Subjects with serious adverse event: Ligament injury [1]: 0
Subjects with serious adverse event: Non-cardiac chest pain [1]: 0
Subjects with serious adverse event: Tonsillar hypertrophy [1]: 0
Subjects with serious adverse event: Uterine leiomyoma [1]: 0
Subjects with serious adverse event: Ventricular dysfunction [1]: 0
Subjects with 1 or more treatment-emergent serious adverse events (25 mg QD, Week 16-56): 0
Subjects with AE leading to discontinuation: Asthenia (25 mg QD, Week 16-56): 0
Subjects with AE leading to discontinuation: Chills (25 mg QD, Week 16-56): 0
Subjects with AE leading to discontinuation: Ear and labyrinth disorders (25 mg QD, Week 16-56): 0
Subjects with AE leading to discontinuation: Gastrointestinal disorders (25 mg QD, Week 16-56): 0
Subjects with AE leading to discontinuation: General disorders and administration site conditions (25 mg QD, Week 16-56): 0
Subjects with AE leading to discontinuation: Headache (25 mg QD, Week 16-56): 0
Subjects with AE leading to discontinuation: Insomnia (25 mg QD, Week 16-56): 0
Subjects with AE leading to discontinuation: Nervous system disorders (25 mg QD, Week 16-56): 0
Subjects with AE leading to discontinuation: Proctalgia (25 mg QD, Week 16-56): 0
Subjects with AE leading to discontinuation: Psoriasis (25 mg QD, Week 16-56): 0
Subjects with AE leading to discontinuation: Psychiatric disorders (25 mg QD, Week 16-56): 0
Subjects with AE leading to discontinuation: Skin and subcutaneous tissue disorders (25 mg QD, Week 16-56): 0
Subjects with AE leading to discontinuation: Vertigo (25 mg QD, Week 16-56): 0
Subjects with AE leading to discontinuation: Vomiting (25 mg QD, Week 16-56): 0
Subjects with COVID-19 associated AE of interest: SARS-CoV-2 test positive (25 mg QD, Week 16-56): 0
Subjects with treatment-emergent AE: Arthralgia (25 mg QD, Week 16-56): 0
Subjects with treatment-emergent AE: Hypertension (25 mg QD, Week 16-56): 0
Subjects with treatment-emergent AE: Influenza (25 mg QD, Week 16-56): 0
Subjects with treatment-emergent AE: Musculoskeletal and connective tissue disorders (25 mg QD, Week 16-56): 0
Subjects with treatment-emergent AE: Sinusitis (25 mg QD, Week 16-56): 0
Subjects with treatment-emergent AE: Vascular disorders (25 mg QD, Week 16-56): 0
Subjects with treatment-emergent AE: Vomiting (25 mg QD, Week 16-56): 0
Subjects with treatment-emergent serious AE: Cardiac disorders (25 mg QD, Week 16-56): 0
Subjects with treatment-emergent serious AE: Cerebrovascular accident (25 mg QD, Week 16-56): 0
Subjects with treatment-emergent serious AE: Coronary artery disease (25 mg QD, Week 16-56): 0
Subjects with treatment-emergent serious AE: Diverticulitis (25 mg QD, Week 16-56): 0
Subjects with treatment-emergent serious AE: Foot deformity (25 mg QD, Week 16-56): 0
Subjects with treatment-emergent serious AE: General disorders and administration site conditions (25 mg QD, Week 16-56): 0
Subjects with treatment-emergent serious AE: Infections and infestations (25 mg QD, Week 16-56): 0
Subjects with treatment-emergent serious AE: Injury, poisoning and procedural complications (25 mg QD, Week 16-56): 0
Subjects with treatment-emergent serious AE: Intervertebral disc protrusion (25 mg QD, Week 16-56): 0
Subjects with treatment-emergent serious AE: Ligament injury (25 mg QD, Week 16-56): 0
Subjects with treatment-emergent serious AE: Musculoskeletal and connective tissue disorders (25 mg QD, Week 16-56): 0
Subjects with treatment-emergent serious AE: Neoplasms benign, malignant and unspecified (incl cysts and polyps) (25 mg QD, Week 16-56): 0
Subjects with treatment-emergent serious AE: Nervous system disorders (25 mg QD, Week 16-56): 0
Subjects with treatment-emergent serious AE: Non-cardiac chest pain (25 mg QD, Week 16-56): 0
Subjects with treatment-emergent serious AE: Respiratory, thoracic and mediastinal disorders (25 mg QD, Week 16-56): 0
Subjects with treatment-emergent serious AE: Tonsillar hypertrophy (25 mg QD, Week 16-56): 0
Subjects with treatment-emergent serious AE: Uterine leiomyoma (25 mg QD, Week 16-56): 0
Subjects with treatment-emergent serious AE: Ventricular dysfunction (25 mg QD, Week 16-56): 0
Number of subjects with treatment-emergent AE: Cholelithiasis [2]: 0
Number of subjects with treatment-emergent AE: Ear and labyrinth disorders [2]: 0
Number of subjects with treatment-emergent AE: Endocrine disorders [2]: 0
Number of subjects with treatment-emergent AE: Eye disorders [2]: 0
Number of subjects with treatment-emergent AE: Eyelid skin dryness [2]: 0
Number of subjects with treatment-emergent AE: Goiter [2]: 0
Number of subjects with treatment-emergent AE: Hepatobiliary disorders [2]: 0
Number of subjects with treatment-emergent AE: Hypertransaminasemia [2]: 0
Number of subjects with treatment-emergent AE: Immune system disorders [2]: 1
Number of subjects with treatment-emergent AE: Insomnia [2]: 0
Number of subjects with treatment-emergent AE: Ocular cyst [2]: 0
Number of subjects with treatment-emergent AE: Psychiatric disorders [2]: 0
Number of subjects with treatment-emergent AE: Retinal vein occlusion [2]: 0
Number of subjects with treatment-emergent AE: Seasonal allergy [2]: 1
Number of subjects with treatment-emergent AE: Vertigo [2]: 0
Subjects with treatment-emergent AE: Immune system disorders (%) [2]: (2.6%)
Subjects with treatment-emergent AE: Seasonal allergy (%) [2]: (2.6%)
Subjects who discontinued study agent because of 1 or more adverse events [3]: 0
Subjects with 1 or more Serious Infections and infestations [3]: 0
Subjects with adverse event: Headache [3]: 0
Subjects with adverse event: Meniscus injury [3]: 0
Subjects with adverse event: Vomiting [3]: 0
Subjects with serious adverse event: Cerebrovascular accident [3]: 0
Subjects with serious adverse event: Diverticulitis [3]: 0
Subjects with serious adverse event: Intervertebral disc protrusion [3]: 0
Subjects with serious adverse event: Ligament injury [3]: 0
Subjects with serious adverse event: Tonsillar hypertrophy [3]: 0
Subjects with serious adverse event: Uterine leiomyoma [3]: 0
Subjects with serious adverse event: Ventricular dysfunction [3]: 0
Subjects with 1 or more treatment-emergent adverse events leading to discontinuation of study agent (50 mg QD, Week 16-56): 0
Subjects with AE leading to discontinuation: Alanine aminotransferase increased (50 mg QD, Week 16-56): 0
Subjects with AE leading to discontinuation: Aspartate aminotransferase increased (50 mg QD, Week 16-56): 0
Subjects with AE leading to discontinuation: Asthenia (50 mg QD, Week 16-56): 0
Subjects with AE leading to discontinuation: Chills (50 mg QD, Week 16-56): 0
Subjects with AE leading to discontinuation: Ear and labyrinth disorders (50 mg QD, Week 16-56): 0
Subjects with AE leading to discontinuation: Gamma-glutamyltransferase increased (50 mg QD, Week 16-56): 0
Subjects with AE leading to discontinuation: Gastrointestinal disorders (50 mg QD, Week 16-56): 0
Subjects with AE leading to discontinuation: General disorders and administration site conditions (50 mg QD, Week 16-56): 0
Subjects with AE leading to discontinuation: Headache (50 mg QD, Week 16-56): 0
